# Data as given in ChEMBL document CHEMBL1201862, “PubChem BioAssay data set” (2004).
# Calls of active or inactive are those of the source.
# Tests used:
# [1] = biological target: T1, Corticotropin-releasing factor receptor 2/Corticotropin-releasing factor-binding protein (Homo sapiens, UniProt P24387+Q13324); assay: Dose Response confirmation of uHTS hits for small molecule antagonists of the CRF-binding protein and CRF-R2 receptor complex.; assay type: functional; conditions: read-out: IC50_Mean
# T1 sequence (Q13324 whole entry): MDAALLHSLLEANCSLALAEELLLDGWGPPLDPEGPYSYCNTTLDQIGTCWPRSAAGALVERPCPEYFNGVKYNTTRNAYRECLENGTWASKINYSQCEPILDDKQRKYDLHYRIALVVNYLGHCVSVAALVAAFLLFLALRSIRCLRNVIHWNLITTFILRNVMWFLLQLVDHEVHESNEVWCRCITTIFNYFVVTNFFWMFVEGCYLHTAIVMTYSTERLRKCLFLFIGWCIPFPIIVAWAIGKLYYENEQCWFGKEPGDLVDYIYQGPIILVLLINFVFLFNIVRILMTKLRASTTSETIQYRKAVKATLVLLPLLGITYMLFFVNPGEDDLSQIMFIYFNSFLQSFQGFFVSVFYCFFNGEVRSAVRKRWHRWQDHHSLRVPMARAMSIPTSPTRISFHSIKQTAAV
# T1 sequence (P24387 whole entry): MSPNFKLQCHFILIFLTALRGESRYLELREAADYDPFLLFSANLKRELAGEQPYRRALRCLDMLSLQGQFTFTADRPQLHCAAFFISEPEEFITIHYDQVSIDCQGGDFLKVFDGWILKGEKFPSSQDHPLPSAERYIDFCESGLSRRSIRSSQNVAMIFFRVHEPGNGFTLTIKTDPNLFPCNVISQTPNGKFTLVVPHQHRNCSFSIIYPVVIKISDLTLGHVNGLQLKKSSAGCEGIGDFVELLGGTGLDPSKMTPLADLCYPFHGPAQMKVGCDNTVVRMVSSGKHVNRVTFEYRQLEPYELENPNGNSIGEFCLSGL
# [2] = biological target: T1, Corticotropin-releasing factor receptor 2/Corticotropin-releasing factor-binding protein; assay: activators of CRF receptor 2 with binding protein – uHTS hits, confirmation (AID 602473); assay type: functional; conditions: read-out: EC50_Mean
# [3] = Luminescence Cell-Based Dose Response HTS to Identify Activators of Luciferase Translation or Activity in H4 […] Cells. [Related pubchem assays: 1829 (Project Summary), 1814 (Primary HTS)]; assay type: functional
# [4] = tested on: H4; assay: Luminescence Cell-Based Dose Response HTS to Identify Activators of 5'UTR Stem-Loop Driven Prion Protein mRNA Translation in H4 Neuroglioblastoma Cells. [Related pubchem assays: 1829 (Project Summary), 1814 (Primary HTS)]; assay type: functional; conditions: Homo sapiens
# [5] = biological target: Cytochrome P450 2C19 (Homo sapiens, UniProt P33261); assay: Cytochrome panel assay with activity outcomes. Panel member name: p450-cyp2c19 Compounds with AC50 equal or less than 10 uM are considered active; assay type: functional
# [6] = biological target: T2, Streptokinase A (Streptococcus pyogenes serotype M1, UniProt P10520); assay: viability-normalized secreted streptokinase activity reduction – plasminogen activation absorbance, OD405, dose response (AID 1914); assay type: functional, Streptococcus pyogenes M1 GAS;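 note: secreted streptokinase activity via plasminogen activation per viability signal from cell pellet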
# T2 sequence (P10520 whole entry): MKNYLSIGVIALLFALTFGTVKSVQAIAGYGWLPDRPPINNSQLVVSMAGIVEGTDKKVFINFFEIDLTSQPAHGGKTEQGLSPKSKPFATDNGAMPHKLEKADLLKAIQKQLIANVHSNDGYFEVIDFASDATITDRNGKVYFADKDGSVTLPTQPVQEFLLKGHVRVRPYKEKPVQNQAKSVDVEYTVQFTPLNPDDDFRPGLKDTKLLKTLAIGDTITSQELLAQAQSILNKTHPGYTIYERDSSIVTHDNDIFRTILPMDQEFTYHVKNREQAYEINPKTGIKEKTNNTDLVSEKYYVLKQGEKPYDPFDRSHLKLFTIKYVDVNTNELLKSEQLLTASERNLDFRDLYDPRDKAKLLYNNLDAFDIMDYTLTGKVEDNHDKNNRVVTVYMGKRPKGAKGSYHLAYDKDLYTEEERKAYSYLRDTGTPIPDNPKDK
# [7] = biological target: T3, Replicative DNA helicase DnaB (Mycobacterium tuberculosis, UniProt P9WMR3); assay: DnaB intein splicing inhibitors, dose response, biochemical, cell-free fluorescence (AID 449749); assay type: functional
# T3 sequence (P9WMR3 whole entry): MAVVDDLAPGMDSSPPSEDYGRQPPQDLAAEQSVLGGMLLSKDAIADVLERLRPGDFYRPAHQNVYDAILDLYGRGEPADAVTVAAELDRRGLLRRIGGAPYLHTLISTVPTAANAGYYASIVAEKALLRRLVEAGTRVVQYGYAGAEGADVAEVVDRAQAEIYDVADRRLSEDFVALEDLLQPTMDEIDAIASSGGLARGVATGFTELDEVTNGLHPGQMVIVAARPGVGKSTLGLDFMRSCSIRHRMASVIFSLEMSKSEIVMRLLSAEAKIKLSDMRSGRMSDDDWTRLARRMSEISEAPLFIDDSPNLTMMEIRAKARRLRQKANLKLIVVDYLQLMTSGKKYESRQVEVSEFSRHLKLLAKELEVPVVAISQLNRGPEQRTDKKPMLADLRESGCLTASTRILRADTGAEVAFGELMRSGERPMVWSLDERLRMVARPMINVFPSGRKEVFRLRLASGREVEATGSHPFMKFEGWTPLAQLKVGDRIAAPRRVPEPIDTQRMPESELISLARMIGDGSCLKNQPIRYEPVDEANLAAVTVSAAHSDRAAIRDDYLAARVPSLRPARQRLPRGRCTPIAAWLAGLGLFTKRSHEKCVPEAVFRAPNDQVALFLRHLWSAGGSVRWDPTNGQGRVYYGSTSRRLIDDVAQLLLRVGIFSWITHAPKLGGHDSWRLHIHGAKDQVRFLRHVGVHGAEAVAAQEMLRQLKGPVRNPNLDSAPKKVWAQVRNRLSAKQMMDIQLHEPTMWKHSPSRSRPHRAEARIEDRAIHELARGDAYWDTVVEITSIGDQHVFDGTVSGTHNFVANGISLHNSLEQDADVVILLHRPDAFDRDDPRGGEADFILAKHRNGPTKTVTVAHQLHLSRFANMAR
# [8] = biological target: T4, Protein RecA (Mycobacterium tuberculosis, UniProt P9WHJ3); assay: Fluorescence Cell-Free Homogeneous Dose Retest to Identify Inhibitors of RecA-Intein Splicing Activity. [Related pubchem assays (depositor defined):AID2097, AID2223, AID489010, AID492950]; assay type: functional
# T4 sequence (P9WHJ3 whole entry): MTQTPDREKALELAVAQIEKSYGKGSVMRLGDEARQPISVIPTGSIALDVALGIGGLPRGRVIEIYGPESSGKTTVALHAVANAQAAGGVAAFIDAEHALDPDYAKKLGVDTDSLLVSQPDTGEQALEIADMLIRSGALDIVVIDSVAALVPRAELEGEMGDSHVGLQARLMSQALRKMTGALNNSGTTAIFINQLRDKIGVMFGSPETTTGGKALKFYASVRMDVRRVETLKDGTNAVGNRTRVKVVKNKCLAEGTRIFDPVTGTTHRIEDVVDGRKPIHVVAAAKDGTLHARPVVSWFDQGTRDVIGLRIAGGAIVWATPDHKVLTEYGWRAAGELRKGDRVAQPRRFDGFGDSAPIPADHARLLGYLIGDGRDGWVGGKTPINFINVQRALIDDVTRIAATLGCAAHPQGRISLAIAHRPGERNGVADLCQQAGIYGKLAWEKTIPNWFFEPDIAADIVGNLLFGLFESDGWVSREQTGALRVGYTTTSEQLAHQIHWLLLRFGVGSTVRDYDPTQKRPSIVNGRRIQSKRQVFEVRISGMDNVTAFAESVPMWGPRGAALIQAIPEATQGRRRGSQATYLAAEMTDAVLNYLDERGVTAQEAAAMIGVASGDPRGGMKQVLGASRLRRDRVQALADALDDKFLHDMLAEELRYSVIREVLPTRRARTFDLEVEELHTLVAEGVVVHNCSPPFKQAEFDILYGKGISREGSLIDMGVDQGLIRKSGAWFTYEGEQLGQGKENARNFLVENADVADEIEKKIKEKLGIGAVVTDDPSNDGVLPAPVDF
# [9] = biological target: Cytochrome P450 3A4 (Homo sapiens, UniProt P08684);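 note: CYP3A4 tested as one member of a cytochrome P450 panel screen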
# [10] = biological target: Cytochrome P450 2C9 (Homo sapiens, UniProt P11712)
# Chain of Cytochrome P450 2C9 (P11712 whole entry): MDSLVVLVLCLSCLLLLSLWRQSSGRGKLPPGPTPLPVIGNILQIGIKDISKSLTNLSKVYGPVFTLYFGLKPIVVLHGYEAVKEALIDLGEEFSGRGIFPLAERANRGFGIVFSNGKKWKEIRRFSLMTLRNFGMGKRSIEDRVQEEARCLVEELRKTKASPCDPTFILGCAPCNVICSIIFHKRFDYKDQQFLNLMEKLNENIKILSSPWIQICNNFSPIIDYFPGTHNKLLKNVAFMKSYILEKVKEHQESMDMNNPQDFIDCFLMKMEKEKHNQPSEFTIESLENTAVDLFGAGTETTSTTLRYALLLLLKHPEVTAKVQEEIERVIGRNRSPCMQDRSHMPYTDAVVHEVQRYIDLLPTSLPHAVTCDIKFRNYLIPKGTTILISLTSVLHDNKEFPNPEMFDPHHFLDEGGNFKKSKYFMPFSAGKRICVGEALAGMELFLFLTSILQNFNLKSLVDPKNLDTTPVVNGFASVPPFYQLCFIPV
# Chain of Cytochrome P450 2C19 (P33261 whole entry): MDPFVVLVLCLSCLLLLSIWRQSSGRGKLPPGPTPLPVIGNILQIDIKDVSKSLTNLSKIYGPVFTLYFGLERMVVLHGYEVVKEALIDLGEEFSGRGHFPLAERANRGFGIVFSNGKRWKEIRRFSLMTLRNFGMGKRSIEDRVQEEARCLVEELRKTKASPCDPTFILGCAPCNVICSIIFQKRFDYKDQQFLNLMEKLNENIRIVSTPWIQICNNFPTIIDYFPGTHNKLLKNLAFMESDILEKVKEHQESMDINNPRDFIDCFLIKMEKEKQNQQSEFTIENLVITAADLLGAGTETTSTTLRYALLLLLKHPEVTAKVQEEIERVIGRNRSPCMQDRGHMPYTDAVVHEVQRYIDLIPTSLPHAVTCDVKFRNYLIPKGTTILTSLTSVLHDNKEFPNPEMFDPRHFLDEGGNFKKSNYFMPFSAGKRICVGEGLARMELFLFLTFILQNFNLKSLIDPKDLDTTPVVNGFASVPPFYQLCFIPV
# Chain of Cytochrome P450 3A4 (P08684 whole entry): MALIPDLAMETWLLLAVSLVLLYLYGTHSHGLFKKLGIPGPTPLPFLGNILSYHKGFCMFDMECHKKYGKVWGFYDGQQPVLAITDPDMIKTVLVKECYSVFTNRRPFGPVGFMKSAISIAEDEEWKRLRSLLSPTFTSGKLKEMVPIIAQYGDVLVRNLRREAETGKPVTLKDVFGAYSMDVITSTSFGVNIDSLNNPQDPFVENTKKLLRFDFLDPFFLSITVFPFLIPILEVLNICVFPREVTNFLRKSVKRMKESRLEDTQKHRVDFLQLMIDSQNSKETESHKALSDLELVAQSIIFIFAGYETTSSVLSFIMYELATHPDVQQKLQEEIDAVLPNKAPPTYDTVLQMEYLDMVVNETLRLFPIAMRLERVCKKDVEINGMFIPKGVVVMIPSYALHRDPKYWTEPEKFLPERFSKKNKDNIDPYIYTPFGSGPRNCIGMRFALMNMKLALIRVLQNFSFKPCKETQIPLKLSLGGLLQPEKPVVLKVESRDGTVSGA
compound,measurement,setting,value
O=C1C(=Cc2cccs2)C(=O)c2ccccc21,IC50,[1],> 47.1 µM (inactive)
same,EC50,[2],> 53 µM (inactive)
N#Cc1c(N2CCOCC2)nsc1-c1ccc(C(F)(F)F)cc1,EC50,[3],10.9 µM (active)
same,EC50,[4],24.7 µM (active)
N#C/C(=C\c1ccccc1)c1nc2ccc[nH]c-2n1,AC50,[5]; read-out: AC50,28.2 µM (inconclusive)
Cc1cccc(-c2nc(C[S+]([O-])CC(=O)N3CC(C)CC(C)C3)c(C)o2)c1 (stereo unspecified),IC50,[1],> 47.1 µM (inactive)
same,EC50,[2],> 53 µM (inactive)
O=C1NC(=Nc2ccccn2)SC1Cc1ccc(Cl)cc1 (stereo unspecified),EC50,[6],> 150 µM (not active)
O=C(NN1C(=O)CSC1=S)c1cccnc1,IC50,[1],> 47.1 µM (inactive)
same,EC50,[2],> 53 µM (inactive)
CC(=O)N1N=C(c2ccc(C)cc2)OC1c1ccc(C(C)C)cc1 (stereo unspecified),EC50,[3],> 120 µM (not active)
same,EC50,[4],6.68 µM (active)
Cc1ccc(NC(=O)c2cnc(SCC(=O)NCC3CCCO3)n(C)c2=O)cc1C (stereo unspecified),AC50,[7],7.83 µM (active)
same,EC50,[8],2.23 µM (active)
COc1ccccc1CNc1nc(-c2ccccc2CN(C)C)nc2ccccc12,AC50,[5]; read-out: AC50,25.1 µM (inconclusive)
OC(C#CCN1CCCCCC1)(c1ccccc1)c1cccnc1 (stereo unspecified),IC50,[1],> 47.1 µM (inactive)
same,EC50,[2],> 53 µM (inactive)
CCOC(=O)N1CCN(C(=O)CSc2nnc(-c3ccc(C(C)(C)C)cc3)o2)CC1,IC50,[1],> 47.1 µM (inactive)
same,EC50,[2],> 53 µM (inactive)
O=C1NC(=O)N(CCc2ccc(F)cc2)C(=O)/C1=C/NCCCN1CCOCC1,AC50,[5],inconclusive
O=c1c(CCc2ccccc2)nc2cnc(Oc3ccccc3)nc2n1C[C@H]1CCCO1,AC50,[9],0.0794 µM (inconclusive)
same,AC50,[5]; read-out: AC50,39.8 µM (inconclusive)
Cc1cc(C(F)F)n2nc(C(=O)Nc3sc4c(c3C#N)CCC(C)C4)nc2n1 (stereo unspecified),AC50,[9],15.8 µM (inconclusive)
same,AC50,[5]; read-out: AC50,31.6 µM (inconclusive)
CC1=NN(c2ccccc2)C(=O)C1/C=C1\C(=O)NC(=O)N(c2ccc(C)c(C)c2)C1=O (stereo unspecified),AC50,[7],23.6 µM (active)
same,EC50,[8],3.37 µM (active)
Cc1sc(NC(=O)/C=C/C(=O)O)c(C(N)=O)c1-c1ccc(C(C)(C)C)cc1,AC50,[7],> 380 µM (inactive)
same,EC50,[8],5.82 µM (active)
O=C(Nc1ccc(-c2nc3ccccc3s2)c(OC(=O)c2ccccc2)c1)c1ccccc1,EC50,[4],> 120 µM (not active)
CC(C)c1nc2ccccn2c1NC1CCCCC1,AC50,[10],39.8 µM (inconclusive)
same,AC50,[5]; read-out: AC50,22.4 µM (inconclusive)
CC(C)=CCC/C(C)=C/CO/N=C1/C[C@@H](O)[C@@H](O)[C@@H]2[C@@H]3C(=O)N(Cc4ccccc4)C(=O)[C@H]3CC[C@@H]12,AC50,[5],inconclusive
O=C1C(Cc2ccccc2)Nc2ncnc(N3CCc4ccccc4C3)c2N1Cc1ccc(Cl)cc1 (stereo unspecified),AC50,[7],> 120 µM (inactive)
same,EC50,[8],> 380 µM (inconclusive)
O=C(O)C1C2CCC(C2)C1C(=O)NCc1ccco1 (stereo unspecified),AC50,[5]; read-out: AC50,7.94 µM (inconclusive)
COc1ccc(CCNC2=C(Cl)C(=O)N(Cc3ccccc3)C2=O)cc1OC,IC50,[1],> 47.1 µM (inactive)
same,EC50,[2],> 53 µM (inactive)
O=C(/C=C/c1ccc2ccccc2n1)N1CCN(c2ccccc2)CC1,IC50,[1],> 47.1 µM (inactive)
same,EC50,[2],> 53 µM (inactive)
CCNc1ncc2nc(CCc3ccccc3)c(=O)n(-c3ccc(OC)cc3)c2n1,AC50,[10],15.8 µM (inconclusive)
same,AC50,[5]; read-out: AC50,39.8 µM (inconclusive)
COCCCN1Cc2ccccc2C1=N,AC50,[10],11.2 µM (inconclusive)
same,AC50,[5]; read-out: AC50,39.8 µM (inconclusive)
Cc1n[nH]c2c1C1(CCN(Cc3ccccc3)CC1)C(C#N)=C(N)O2,AC50,[7],> 380 µM (inactive)
same,EC50,[8],1.07 µM (active)
CS(=O)(=O)c1ccc(C(=O)CN2C(=O)NC3(CCCc4ccccc43)C2=O)cc1 (stereo unspecified),IC50,[1],> 47.1 µM (inactive)
same,EC50,[2],> 53 µM (inactive)
O=C(CSc1nnnn1-c1ccccc1)NCCCN1CCCC1=O,IC50,[1],> 47.1 µM (inactive)
same,EC50,[2],> 53 µM (inactive)
COc1cc2[nH]c(=O)n(CCCCCC(=O)NC3CCCC3)c(=O)c2cc1OC,IC50,[1],> 47.1 µM (inactive)
same,EC50,[2],> 53 µM (inactive)
CC(C)(C)NC(=O)C(c1ccccn1)N(C(=O)C1CSC(=O)C1)c1cccc(F)c1 (stereo unspecified),IC50,[1],> 47.1 µM (inactive)
same,EC50,[2],> 53 µM (inactive)
CCCc1nnc(SCC(=O)N2CCCCC2C)n1CCCOC (stereo unspecified),AC50,[10],0.0251 µM (inconclusive)
same,AC50,[9],15.8 µM (inconclusive)
same,AC50,[5]; read-out: AC50,39.8 µM (inconclusive)
CCOc1ccccc1NC(=O)CCC(=O)O,AC50,[5]; read-out: AC50,3.16 µM (inconclusive)
Cc1ccc(N2CC(C(=O)NC3CCC(C)CC3)CC2=O)cc1 (stereo unspecified),IC50,[1],> 47.1 µM (inactive)
same,EC50,[2],> 53 µM (inactive)
Cc1ccc(/N=c2/sc(C)c(C)n2C)cc1,EC50,[3],13.9 µM (active)
same,EC50,[4],108 µM (active)
